According to the OligoGym collection:
HELM strings list units from the 5' end as sugar, base in round brackets, then linkage (d deoxyribose, r ribose, m 2'-O-methyl, p phosphodiester). Strings are as the collection lists them, not checked against the first reports. ss, as = sense and antisense strand; [lna] = locked nucleic acid (LNA); [hna] = hexitol nucleic acid; [fl2r] = 2'-fluoro

Details: siRNA
Note: test system not given here.

Substance	target mRNA knockdown [%]
RNA1{r(G)p.r(A)p.r(C)p.r(G)p.[hna](U)p.r(A)p.r(A)p.[hna](A)p.r(C)p.r(G)p.[hna](G)p.r(C)p.r(C)p.[hna](A)p.r(C)p.r(A)p.r(A)p.r(G)p.r(U)p.[hna](U)p.d(T)}|RNA2{r(A)p.r(C)p.[hna](U)p.r(U)p.r(G)p.r(U)p.r(G)p.r(G)p.r(C)p.r(C)p.r(G)p.r(U)p.r(U)p.r(U)p.r(A)p.r(C)p.r(G)p.[hna](U)p.[hna](C)p.[hna](G)p.d(T)}$$$RNA1{StrandType:ss}|RNA2{StrandType:as}$	25.2
RNA1{r(G)p.r(A)p.r(C)p.r(G)p.[hna](U)p.r(A)p.r(A)p.[hna](A)p.r(C)p.r(G)p.[hna](G)p.r(C)p.r(C)p.[hna](A)p.r(C)p.r(A)p.r(A)p.r(G)p.r(U)p.[hna](U)p.d(T)}|RNA2{r(A)p.r(C)p.r(U)p.r(U)p.r(G)p.r(U)p.r(G)p.r(G)p.r(C)p.r(C)p.r(G)p.r(U)p.r(U)p.r(U)p.r(A)p.r(C)p.r(G)p.[hna](U)p.[hna](C)p.[hna](G)p.d(T)}$$$RNA1{StrandType:ss}|RNA2{StrandType:as}$	48.7
RNA1{r(G)p.r(A)p.r(C)p.r(G)p.[hna](U)p.r(A)p.r(A)p.[hna](A)p.r(C)p.r(G)p.[hna](G)p.r(C)p.r(C)p.[hna](A)p.r(C)p.r(A)p.r(A)p.r(G)p.r(U)p.r(U)p.d(T)}|RNA2{r(A)p.[hna](C)p.r(U)p.r(U)p.r(G)p.r(U)p.r(G)p.r(G)p.[hna](C)p.r(C)p.r(G)p.r(U)p.r(U)p.r(U)p.r(A)p.r(C)p.r(G)p.[hna](U)p.[hna](C)p.[hna](G)p.d(T)}$$$RNA1{StrandType:ss}|RNA2{StrandType:as}$	0
RNA1{r(G)p.r(A)p.r(C)p.r(G)p.[hna](U)p.r(A)p.r(A)p.[hna](A)p.r(C)p.r(G)p.[hna](G)p.r(C)p.r(C)p.[hna](A)p.r(C)p.r(A)p.r(A)p.r(G)p.r(U)p.r(U)p.d(T)}|RNA2{r(A)p.r(C)p.[lna](T)p.r(U)p.r(G)p.[lna](T)p.r(G)p.r(G)p.r(C)p.r(C)p.r(G)p.r(U)p.r(U)p.[lna](T)p.r(A)p.r(C)p.r(G)p.[lna](T)p.r(C)p.[lna](G)p.[lna](C)}$$$RNA1{StrandType:ss}|RNA2{StrandType:as}$	8.9
RNA1{r(G)p.r(A)p.r(C)p.r(G)p.[hna](U)p.r(A)p.r(A)p.[hna](A)p.r(C)p.r(G)p.[hna](G)p.r(C)p.r(C)p.[hna](A)p.r(C)p.r(A)p.r(A)p.r(G)p.r(U)p.r(U)p.d(T)}|RNA2{r(A)p.r(C)p.r(U)p.r(U)p.r(G)p.r(U)p.r(G)p.r(G)p.r(C)p.r(C)p.r(G)p.r(U)p.r(U)p.r(U)p.r(A)p.r(C)p.r(G)p.r(U)p.[lna](C)p.[lna](G)p.r(C)}$$$RNA1{StrandType:ss}|RNA2{StrandType:as}$	77.3
RNA1{r(G)p.r(A)p.r(C)p.r(G)p.[hna](U)p.r(A)p.r(A)p.[hna](A)p.r(C)p.r(G)p.[hna](G)p.r(C)p.r(C)p.[hna](A)p.r(C)p.r(A)p.r(A)p.r(G)p.r(U)p.r(U)p.d(T)}|RNA2{r(A)p.r(C)p.r(U)p.r(U)p.r(G)p.r(U)p.r(G)p.r(G)p.r(C)p.r(C)p.r(G)p.r(U)p.r(U)p.r(U)p.r(A)p.r(C)p.r(G)p.r(U)p.r(C)p.r(G)p.r(C)}$$$RNA1{StrandType:ss}|RNA2{StrandType:as}$	81.2
RNA1{r(G)p.r(A)p.r(C)p.r(G)p.r(U)p.r(A)p.r(A)p.r(A)p.r(C)p.r(G)p.r(G)p.r(C)p.r(C)p.r(A)p.r(C)p.r(A)p.r(A)p.r(G)p.[hna](U)p.[hna](U)p.r(C)}|RNA2{[fl2r](A)p.m(C)p.[fl2r](U)p.m(U)p.[fl2r](G)p.m(U)p.[fl2r](G)p.m(G)p.[fl2r](C)p.m(C)p.[fl2r](G)p.m(U)p.[fl2r](U)p.m(U)p.[fl2r](A)p.m(C)p.[fl2r](G)p.m(U)p.[fl2r](C)p.m(G)p.[fl2r](C)}$$$RNA1{StrandType:ss}|RNA2{StrandType:as}$	45.8
